# ChEMBL document CHEMBL1201862, “PubChem BioAssay data set” (2004)
# The source made the active and inactive calls.
# Columns and labels:
# HEK293 [1] = assay: cells; format: functional, cell-based; conditions: Homo sapiens
# [2] = target: Nucleotide-binding oligomerization domain-containing protein 2 (Homo sapiens, UniProt Q9HC29); assay: inhibition of NOD2-driven NF-kB reporter – cell-based, luminescence, uHTS, HEK293 (AID 1566); format: functional
# Fatty acid synthase [3] = target: T1, Fatty acid synthase (Homo sapiens, UniProt P49327); assay: inhibition of human FAS-TE enzyme activity – biochemical, kinetic fluorescence intensity, dose response (AID 624326); format: functional;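 further: rate of fluorescence rise from hydrolysis of a fluorogenic O-methyl fluorescein ester substrate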
# T1 sequence (P49327 whole entry): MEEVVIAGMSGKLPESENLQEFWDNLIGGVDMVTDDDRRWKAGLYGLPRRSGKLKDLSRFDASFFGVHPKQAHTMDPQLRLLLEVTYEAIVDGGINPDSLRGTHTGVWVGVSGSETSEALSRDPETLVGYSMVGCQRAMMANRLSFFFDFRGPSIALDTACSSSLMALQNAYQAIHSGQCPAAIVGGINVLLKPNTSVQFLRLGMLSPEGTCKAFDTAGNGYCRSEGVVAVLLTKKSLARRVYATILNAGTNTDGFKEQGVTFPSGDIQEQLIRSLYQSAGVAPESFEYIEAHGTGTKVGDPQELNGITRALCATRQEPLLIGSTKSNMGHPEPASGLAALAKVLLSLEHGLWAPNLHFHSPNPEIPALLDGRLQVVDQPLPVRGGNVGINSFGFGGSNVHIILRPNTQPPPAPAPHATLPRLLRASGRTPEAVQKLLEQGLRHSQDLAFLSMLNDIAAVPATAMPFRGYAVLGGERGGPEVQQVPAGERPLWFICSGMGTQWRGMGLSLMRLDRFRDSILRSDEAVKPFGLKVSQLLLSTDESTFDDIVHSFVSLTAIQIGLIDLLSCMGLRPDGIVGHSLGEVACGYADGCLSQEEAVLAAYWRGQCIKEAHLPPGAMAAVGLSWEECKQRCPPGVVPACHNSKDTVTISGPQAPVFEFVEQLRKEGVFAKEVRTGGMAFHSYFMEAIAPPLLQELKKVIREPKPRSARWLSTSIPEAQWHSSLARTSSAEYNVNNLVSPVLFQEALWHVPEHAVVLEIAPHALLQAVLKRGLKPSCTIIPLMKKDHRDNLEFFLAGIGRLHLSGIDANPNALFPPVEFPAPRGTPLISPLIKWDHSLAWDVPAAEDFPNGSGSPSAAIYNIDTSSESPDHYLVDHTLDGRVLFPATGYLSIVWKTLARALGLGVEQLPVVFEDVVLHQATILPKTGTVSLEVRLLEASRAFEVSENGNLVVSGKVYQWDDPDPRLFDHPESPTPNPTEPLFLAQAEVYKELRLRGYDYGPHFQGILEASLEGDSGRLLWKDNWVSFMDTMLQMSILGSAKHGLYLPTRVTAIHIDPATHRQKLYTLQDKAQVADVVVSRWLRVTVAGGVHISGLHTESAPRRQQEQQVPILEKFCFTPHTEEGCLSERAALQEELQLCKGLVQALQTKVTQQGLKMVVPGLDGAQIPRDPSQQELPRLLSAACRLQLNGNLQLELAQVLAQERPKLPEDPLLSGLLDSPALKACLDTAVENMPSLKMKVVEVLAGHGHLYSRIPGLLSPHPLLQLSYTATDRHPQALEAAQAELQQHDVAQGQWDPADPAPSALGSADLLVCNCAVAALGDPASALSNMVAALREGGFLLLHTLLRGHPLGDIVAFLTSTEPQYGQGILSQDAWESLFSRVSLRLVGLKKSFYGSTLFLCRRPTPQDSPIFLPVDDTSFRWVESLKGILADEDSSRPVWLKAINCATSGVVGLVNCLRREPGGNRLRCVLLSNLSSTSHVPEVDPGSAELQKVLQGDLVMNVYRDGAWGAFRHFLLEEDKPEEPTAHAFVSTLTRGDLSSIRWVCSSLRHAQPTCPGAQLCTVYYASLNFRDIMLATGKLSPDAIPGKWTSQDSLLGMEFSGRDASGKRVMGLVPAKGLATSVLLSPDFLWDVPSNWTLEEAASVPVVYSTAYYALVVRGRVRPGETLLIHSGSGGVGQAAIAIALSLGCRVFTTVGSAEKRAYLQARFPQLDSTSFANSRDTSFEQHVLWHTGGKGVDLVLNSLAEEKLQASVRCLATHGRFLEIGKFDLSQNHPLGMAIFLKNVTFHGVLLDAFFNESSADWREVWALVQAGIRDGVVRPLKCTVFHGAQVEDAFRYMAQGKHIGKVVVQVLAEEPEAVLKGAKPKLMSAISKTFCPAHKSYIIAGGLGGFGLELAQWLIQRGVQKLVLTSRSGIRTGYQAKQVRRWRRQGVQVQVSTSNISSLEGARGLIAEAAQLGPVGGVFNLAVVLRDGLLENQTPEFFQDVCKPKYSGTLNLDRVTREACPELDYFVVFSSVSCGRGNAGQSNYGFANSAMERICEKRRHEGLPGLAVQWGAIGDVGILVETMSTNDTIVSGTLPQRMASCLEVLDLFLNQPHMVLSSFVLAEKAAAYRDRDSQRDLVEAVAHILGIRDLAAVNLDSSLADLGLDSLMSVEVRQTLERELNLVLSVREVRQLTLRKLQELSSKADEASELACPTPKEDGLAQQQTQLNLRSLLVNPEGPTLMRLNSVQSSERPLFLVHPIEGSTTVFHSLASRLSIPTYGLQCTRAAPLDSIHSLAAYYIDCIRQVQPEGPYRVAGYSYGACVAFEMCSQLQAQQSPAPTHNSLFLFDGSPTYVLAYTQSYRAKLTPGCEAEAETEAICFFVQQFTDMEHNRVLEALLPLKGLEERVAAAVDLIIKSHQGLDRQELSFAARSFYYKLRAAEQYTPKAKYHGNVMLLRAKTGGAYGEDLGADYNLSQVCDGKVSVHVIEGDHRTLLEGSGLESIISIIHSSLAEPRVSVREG
# HEK293 [4] = assay: cells; format: functional, cell-based; conditions: Homo sapiens; remark: listed apart in the source
# Streptococcus = assay: GAS UMAA2166 growth inhibition – luminescence, BacTiterGlo, counter-screen for streptokinase expression inhibitor project, dose response (AID 1915); format: functional, organism-based;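 further: potency for reduction of bacterial viability or growth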
# [5] = microbe, parasite or virus in culture; format: functional; conditions: Mycobacterium tuberculosis
# HEK293 [6] = assay: cells; format: functional, cell-based; conditions: Homo sapiens; remark: listed apart in the source
# HEK293 [7] = assay: NOD2 signaling inhibitors in MDP-stimulated cells, cell-based, uHTS, luminescence (AID 2001); format: functional; conditions: Homo sapiens
# INS1 = assay: INS-1E survival protection against cytokine death – cell-based, luminescence, retest, dose response (AID 449756); format: functional; conditions: Rattus norvegicus;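 further: cell death triggered by IL-1 beta plus TNF-alpha plus IFN-gamma mixture; protective hits raise ATP signal compared with cytokine alone wells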
# [8] = test system: Streptococcus sp. 'group A'; assay: Streptococcus pyogenes SK(-)GAS viability under kanamycin – luminescence, BacTiterGlo, confirmation, counter-screen for streptokinase expression inhibitor project, dose response (AID 1900); format: functional, organism-based
# Fatty acid synthase [9] = target: T1, Fatty acid synthase; assay: inhibition of human FAS-TE enzyme activity – biochemical, endpoint fluorescence intensity, uHTS hits, dose response (AID 624327); format: functional;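 further: fluorescence from hydrolysis of an O-methyl fluorescein acyl ester substrate by the enzyme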
# HEK293 [10] = assay: inhibition of NOD1-driven NF-kB reporter – cell-based, luminescence, uHTS, primary screen (AID 1578); format: functional; conditions: Homo sapiens
# [11] = target: G2/mitotic-specific cyclin-B1 (Homo sapiens, UniProt P14635); assay: HeLa cell cycle G2/M accumulation – FACS, mechanism study for Wee1 degradation inhibitor project, late-stage follow-up, panel member Cyclin B Degradation (AID 2088)
# G2/mitotic-specific cyclin-B1, sequence (P14635 whole entry): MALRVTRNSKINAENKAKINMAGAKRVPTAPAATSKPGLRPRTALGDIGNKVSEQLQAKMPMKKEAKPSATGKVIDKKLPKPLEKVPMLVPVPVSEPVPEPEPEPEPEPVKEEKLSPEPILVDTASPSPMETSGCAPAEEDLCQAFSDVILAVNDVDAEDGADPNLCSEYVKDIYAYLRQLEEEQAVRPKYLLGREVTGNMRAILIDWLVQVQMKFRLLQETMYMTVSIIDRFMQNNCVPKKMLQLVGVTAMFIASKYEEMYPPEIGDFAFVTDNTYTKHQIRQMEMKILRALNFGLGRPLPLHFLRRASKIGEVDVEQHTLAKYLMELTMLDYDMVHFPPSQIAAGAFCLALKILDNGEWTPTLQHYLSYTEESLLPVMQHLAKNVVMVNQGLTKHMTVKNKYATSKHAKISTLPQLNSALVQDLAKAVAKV
# Wee1-like protein kinase = Wee1-like protein kinase (Homo sapiens, UniProt P30291); assay: HeLa cell cycle G2/M accumulation – FACS, mechanism study for Wee1 degradation inhibitor project, late-stage follow-up, panel member Wee1 Degradation (AID 2088)
# Hexokinase HKDC1 = target: T2, Hexokinase HKDC1 (Homo sapiens, UniProt Q2TB90); assay: activation of HKDC1 glucose phosphorylation – biochemical, W721R variant, dose response (AID 504730); format: functional
# T2 sequence (Q2TB90 whole entry): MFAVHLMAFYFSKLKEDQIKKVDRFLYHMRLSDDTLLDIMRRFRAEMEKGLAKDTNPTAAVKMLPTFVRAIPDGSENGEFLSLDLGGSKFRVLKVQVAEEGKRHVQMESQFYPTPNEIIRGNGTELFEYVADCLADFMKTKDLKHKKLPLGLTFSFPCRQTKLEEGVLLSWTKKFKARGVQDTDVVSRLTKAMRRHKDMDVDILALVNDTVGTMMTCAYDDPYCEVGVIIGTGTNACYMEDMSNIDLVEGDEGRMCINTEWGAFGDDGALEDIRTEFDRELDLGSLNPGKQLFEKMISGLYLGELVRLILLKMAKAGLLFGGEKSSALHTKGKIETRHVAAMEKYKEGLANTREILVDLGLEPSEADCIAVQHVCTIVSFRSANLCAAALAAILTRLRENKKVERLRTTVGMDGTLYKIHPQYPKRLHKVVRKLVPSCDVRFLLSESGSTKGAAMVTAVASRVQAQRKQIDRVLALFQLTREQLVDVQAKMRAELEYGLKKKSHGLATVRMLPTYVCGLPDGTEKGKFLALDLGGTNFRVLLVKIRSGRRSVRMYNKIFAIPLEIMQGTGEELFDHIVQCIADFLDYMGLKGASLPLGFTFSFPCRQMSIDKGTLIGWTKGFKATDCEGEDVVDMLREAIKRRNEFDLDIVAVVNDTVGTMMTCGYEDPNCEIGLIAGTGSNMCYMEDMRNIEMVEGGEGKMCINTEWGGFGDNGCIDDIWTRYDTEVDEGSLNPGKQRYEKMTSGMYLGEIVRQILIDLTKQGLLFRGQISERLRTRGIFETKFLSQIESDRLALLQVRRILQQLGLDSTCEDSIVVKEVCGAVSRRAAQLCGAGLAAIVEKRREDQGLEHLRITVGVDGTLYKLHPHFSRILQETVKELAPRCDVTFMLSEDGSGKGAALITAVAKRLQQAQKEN
# Nonstructural protein 1 = Nonstructural protein 1 (Influenza A virus, UniProt Q194T2); format: functional, Influenza A virus (A/California/07/2009(H1N1))
# Nonstructural protein 1, sequence (Q194T2 whole entry): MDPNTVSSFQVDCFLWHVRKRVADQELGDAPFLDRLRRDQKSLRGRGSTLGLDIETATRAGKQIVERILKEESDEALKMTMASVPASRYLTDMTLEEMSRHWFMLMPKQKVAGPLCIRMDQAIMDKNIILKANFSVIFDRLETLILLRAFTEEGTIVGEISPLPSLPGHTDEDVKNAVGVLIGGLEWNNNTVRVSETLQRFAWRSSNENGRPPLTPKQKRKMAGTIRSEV
# [12] = viability loss in THP-1 monocytes – THP-1 cells, cytotoxicity control for Vif-APOBEC3G degradation inhibitor project, dose response (AID 1117359); format: functional; conditions: THP-1
# Hexokinase-1 = Hexokinase-1 (Homo sapiens, UniProt P19367); assay: HK1 enzyme activation by HKDC1 hits – biochemical, selectivity assay for HKDC1 activator project, dose response (AID 504762); format: functional
# Hexokinase-1, sequence (P19367 whole entry): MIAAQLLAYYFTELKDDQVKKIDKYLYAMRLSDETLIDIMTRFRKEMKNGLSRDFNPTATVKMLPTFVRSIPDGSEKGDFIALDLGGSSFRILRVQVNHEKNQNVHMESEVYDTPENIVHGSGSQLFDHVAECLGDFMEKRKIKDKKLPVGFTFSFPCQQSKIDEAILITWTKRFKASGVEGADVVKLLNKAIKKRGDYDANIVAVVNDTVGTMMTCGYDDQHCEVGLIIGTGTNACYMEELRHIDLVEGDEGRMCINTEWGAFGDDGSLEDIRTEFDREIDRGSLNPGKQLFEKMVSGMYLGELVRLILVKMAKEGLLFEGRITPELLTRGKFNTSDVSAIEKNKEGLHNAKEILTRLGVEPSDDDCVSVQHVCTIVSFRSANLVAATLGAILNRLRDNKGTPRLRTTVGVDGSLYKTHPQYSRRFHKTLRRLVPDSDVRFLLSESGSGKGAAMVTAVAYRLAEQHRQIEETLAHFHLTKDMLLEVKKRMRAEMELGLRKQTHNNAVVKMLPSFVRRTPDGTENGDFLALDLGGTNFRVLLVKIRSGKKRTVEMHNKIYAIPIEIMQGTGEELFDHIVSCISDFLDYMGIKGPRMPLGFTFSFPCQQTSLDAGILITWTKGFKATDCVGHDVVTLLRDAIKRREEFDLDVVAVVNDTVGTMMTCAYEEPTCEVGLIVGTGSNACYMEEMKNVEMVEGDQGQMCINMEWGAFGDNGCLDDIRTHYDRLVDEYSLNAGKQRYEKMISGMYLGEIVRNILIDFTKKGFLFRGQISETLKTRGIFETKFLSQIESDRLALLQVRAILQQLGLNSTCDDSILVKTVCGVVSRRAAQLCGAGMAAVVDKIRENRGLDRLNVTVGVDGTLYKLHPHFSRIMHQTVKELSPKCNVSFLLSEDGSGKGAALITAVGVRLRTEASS
# Coagulation factor XII = target: T3, Coagulation factor XII (Homo sapiens, UniProt P00748); assay: activated coagulation factor XII inhibitor potency, concentration-effect curve, cell-free (AID 716); format: functional
# T3 sequence (P00748 whole entry): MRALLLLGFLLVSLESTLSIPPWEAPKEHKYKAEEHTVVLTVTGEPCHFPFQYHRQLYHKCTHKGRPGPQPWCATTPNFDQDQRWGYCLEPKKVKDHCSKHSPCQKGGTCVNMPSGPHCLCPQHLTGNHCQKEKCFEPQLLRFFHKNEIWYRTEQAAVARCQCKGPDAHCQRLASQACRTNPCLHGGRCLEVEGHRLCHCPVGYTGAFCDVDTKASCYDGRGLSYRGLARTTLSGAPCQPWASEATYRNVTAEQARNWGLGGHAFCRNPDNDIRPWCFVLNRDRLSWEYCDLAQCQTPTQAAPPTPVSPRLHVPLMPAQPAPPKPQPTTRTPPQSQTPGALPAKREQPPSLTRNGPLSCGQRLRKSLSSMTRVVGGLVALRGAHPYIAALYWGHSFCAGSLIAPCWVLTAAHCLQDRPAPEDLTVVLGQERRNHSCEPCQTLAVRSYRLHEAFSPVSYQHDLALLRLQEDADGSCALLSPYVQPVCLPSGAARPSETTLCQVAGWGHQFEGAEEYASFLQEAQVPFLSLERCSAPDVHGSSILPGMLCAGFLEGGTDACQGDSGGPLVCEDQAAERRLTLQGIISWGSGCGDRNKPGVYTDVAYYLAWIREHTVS
# Cytochrome P450 2C19 = Cytochrome P450 2C19 (Homo sapiens, UniProt P33261); assay: Cytochrome panel assay with activity outcomes. Panel member name: p450-cyp2c19 Compounds with AC50 equal or less than 10 uM are considered active; format: functional; conditions: read-out: AC50
# T-cell = assay: loss of vesicle association with mouse CD8+ T cells – mouse 2C CD8+ T cells, flow cytometry, dose response (AID 485284); format: functional
# Nucleotide-binding oligomerization domain-containing protein 2, sequence (Q9HC29 whole entry, the tested form may be a part): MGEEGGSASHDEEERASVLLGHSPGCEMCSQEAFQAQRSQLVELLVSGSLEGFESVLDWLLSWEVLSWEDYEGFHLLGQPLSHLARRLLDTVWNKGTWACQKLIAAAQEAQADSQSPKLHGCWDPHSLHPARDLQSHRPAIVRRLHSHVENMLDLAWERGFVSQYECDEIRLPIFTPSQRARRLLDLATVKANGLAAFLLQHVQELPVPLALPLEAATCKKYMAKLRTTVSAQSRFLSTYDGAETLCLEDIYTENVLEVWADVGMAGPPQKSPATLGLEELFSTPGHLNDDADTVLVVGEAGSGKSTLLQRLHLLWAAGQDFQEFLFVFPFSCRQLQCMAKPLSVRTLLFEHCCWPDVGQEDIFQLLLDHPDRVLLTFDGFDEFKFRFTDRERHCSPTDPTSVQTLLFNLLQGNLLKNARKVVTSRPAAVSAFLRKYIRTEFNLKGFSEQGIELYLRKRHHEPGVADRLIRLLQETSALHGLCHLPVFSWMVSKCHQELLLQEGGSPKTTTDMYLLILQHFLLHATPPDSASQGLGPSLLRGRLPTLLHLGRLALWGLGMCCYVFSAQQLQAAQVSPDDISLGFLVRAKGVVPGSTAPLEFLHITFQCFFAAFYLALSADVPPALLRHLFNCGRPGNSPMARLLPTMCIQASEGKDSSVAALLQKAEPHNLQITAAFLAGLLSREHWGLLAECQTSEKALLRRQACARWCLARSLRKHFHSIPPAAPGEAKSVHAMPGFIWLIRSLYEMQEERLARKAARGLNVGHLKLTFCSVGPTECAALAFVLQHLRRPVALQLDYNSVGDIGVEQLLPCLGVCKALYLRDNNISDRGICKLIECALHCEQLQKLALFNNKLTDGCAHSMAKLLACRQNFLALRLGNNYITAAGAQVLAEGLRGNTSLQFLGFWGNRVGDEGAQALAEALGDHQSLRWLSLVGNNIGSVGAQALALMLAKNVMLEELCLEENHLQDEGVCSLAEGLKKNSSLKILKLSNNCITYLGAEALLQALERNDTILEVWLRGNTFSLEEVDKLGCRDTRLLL
smiles,measurement,setting,value
CCOc1ccc(-c2csc(/C(C#N)=C\c3ccc(O)c([N+](=O)[O-])c3)n2)cc1,IC50,HEK293 [1],6.63 µM (active)
same,EC50,[2],6.23 µM (active)
same,IC50,Fatty acid synthase [3],6.74 µM (active)
same,IC50,HEK293 [4],1.83 µM (active)
same,EC50,Streptococcus,3.58 µM (active)
same,CC50,[5],10.5 µM (active)
same,IC50,HEK293 [6],> 20 µM (inactive)
same,IC50,HEK293 [7],2.58 µM (inactive)
same,AC50,INS1,4 µM (active)
same,EC50,[8],2.18 µM (active)
same,IC50,Fatty acid synthase [9],6.61 µM (active)
same,EC50,HEK293 [10],1.52 µM (active)
c1cc2[nH]c3c(c2c2nonc12)CCCC3,EC50,[11],> 49.7 µM (inactive)
same,EC50,Wee1-like protein kinase,> 49.7 µM (inactive)
CC(=NNC(=S)SCc1ccccc1)c1ccccn1,EC50,Hexokinase HKDC1,1.61 µM (active)
same,IC50,Nonstructural protein 1,12.2 µM (active)
same,CC50,[12],< 0.08 µM (active)
same,EC50,Hexokinase-1,> 80 µM (inactive)
COc1ccc(N2CCN(C(=O)c3c(-c4ccccc4)noc3C)CC2)cc1,IC50,Coagulation factor XII,> 50 µM (inactive)
COc1ccc(C(=O)C2=C(O)C(=O)N(Cc3cccnc3)C2c2ccco2)cc1OC (stereo unspecified),AC50,Cytochrome P450 2C19,0.0891 µM (inconclusive)
same,EC50,T-cell,64 µM (inactive)
